# Assay results reported in patent US12371428B2 (Exelixis, Inc., priority 2019, dated 2025).
# Legend:
# [1] = biological target: Human MET (residues 956-1390) (Homo sapiens (Human), UniProt P08581); experiment: Human Met kinase assay, HTRF KinEase (Example D-2); assay type: biochemical; conditions: protocol of Example D-2 (other compounds); read-out: c-Met IC50
# Summary of the method: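 HTRF KinEase assay on MET residues 956-1390 (0.1 ng/well) in buffer with 5 mM MgCl2, 1 mM DTT and 1 mM MnCl2, with biotinylated peptide substrate, ATP at Km, 10 compound concentrations and 3% DMSO final, run 40 min at room temperature. The […] signal was normalized to DMSO and to 1 μM reference compound, and IC50 came from a 4-parameter logistic fit.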
# [2] = biological target: Human KDR (residues 790-1356) (Homo sapiens (Human), UniProt P35968); experiment: Human KDR kinase assay, HTRF KinEase (Example B-2); assay type: biochemical; conditions: protocol of Example B-2 (other compounds)
# Sequence of Human KDR (residues 790-1356) (P35968 790-1356): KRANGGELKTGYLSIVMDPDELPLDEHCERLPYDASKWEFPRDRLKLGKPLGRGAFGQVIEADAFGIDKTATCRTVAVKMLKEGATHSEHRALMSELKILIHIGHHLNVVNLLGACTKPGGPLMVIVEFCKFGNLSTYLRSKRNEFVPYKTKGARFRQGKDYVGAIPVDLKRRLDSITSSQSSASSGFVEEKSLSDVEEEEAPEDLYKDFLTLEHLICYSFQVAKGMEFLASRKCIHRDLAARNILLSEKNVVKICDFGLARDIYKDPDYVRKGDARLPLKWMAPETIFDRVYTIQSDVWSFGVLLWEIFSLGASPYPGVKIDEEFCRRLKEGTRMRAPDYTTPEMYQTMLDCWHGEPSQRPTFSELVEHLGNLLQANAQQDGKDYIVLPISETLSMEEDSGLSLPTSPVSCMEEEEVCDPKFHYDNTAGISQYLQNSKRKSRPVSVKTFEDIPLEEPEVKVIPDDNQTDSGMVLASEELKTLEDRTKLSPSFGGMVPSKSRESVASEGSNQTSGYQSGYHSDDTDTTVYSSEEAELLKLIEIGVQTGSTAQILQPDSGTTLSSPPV
# Summary of the method: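 Ten compound concentrations (3% DMSO final) were pre-plated, then KDR (790-1356) with biotinylated peptide in Mg/Mn/DTT buffer was added; ATP at Km (4.0 μM) started a 40 min room-temperature reaction. Detection used Eu-TK antibody and SA-XL665 in EDTA buffer; activity normalized to DMSO and reference inhibitor, IC50 by logistic fit.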
# [3] = biological target: Human MER (residues 528-999) (Homo sapiens (Human), UniProt Q12866); experiment: Human Mer kinase assay, HTRF KinEase (Example C-2); assay type: biochemical; conditions: protocol of Example C-2 (other compounds)
# Sequence of Human MER (residues 528-999) (Q12866 528-999): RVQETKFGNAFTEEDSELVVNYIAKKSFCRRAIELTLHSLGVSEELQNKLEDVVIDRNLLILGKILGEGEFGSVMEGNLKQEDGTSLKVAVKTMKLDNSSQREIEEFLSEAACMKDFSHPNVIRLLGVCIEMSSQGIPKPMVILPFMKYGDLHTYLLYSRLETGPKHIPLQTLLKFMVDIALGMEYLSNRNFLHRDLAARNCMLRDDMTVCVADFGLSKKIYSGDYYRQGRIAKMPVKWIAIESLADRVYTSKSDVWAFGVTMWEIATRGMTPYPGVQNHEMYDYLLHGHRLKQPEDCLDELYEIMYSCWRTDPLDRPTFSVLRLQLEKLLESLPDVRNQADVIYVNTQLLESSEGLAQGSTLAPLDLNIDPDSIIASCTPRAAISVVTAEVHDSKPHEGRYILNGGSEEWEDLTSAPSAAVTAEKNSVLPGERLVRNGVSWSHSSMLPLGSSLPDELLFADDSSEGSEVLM
# Summary of the method: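 HTRF KinEase TK assay with MER 528-999 (1 ng/well) in enzymatic buffer plus 5 mM MgCl2 and 1 mM DTT, biotinylated peptide substrate and ATP at Km (40 μM), 3% DMSO final, 60 min at room temperature. Stopped with EDTA detection mix (SA-XL665, TK antibody-Eu3+), read at 665/620 nm after 60 min; IC50 from 10-point 4-parameter fit, normalized to DMSO and 1 μM reference.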
# [4] = biological target: Met (phospho-Met, HGF-stimulated PC-3 prostate cancer cells) (Homo sapiens (Human), UniProt P08581); experiment: Met autophosphorylation ELISA in PC-3 cells (Example F); assay type: cell-based; conditions: cellular activity; Met autophosphorylation ELISA in PC-3 cells; read-out: c-Met IC50
# Sequence of Met (phospho-Met, HGF-stimulated PC-3 prostate cancer cells) (P08581 25-1390): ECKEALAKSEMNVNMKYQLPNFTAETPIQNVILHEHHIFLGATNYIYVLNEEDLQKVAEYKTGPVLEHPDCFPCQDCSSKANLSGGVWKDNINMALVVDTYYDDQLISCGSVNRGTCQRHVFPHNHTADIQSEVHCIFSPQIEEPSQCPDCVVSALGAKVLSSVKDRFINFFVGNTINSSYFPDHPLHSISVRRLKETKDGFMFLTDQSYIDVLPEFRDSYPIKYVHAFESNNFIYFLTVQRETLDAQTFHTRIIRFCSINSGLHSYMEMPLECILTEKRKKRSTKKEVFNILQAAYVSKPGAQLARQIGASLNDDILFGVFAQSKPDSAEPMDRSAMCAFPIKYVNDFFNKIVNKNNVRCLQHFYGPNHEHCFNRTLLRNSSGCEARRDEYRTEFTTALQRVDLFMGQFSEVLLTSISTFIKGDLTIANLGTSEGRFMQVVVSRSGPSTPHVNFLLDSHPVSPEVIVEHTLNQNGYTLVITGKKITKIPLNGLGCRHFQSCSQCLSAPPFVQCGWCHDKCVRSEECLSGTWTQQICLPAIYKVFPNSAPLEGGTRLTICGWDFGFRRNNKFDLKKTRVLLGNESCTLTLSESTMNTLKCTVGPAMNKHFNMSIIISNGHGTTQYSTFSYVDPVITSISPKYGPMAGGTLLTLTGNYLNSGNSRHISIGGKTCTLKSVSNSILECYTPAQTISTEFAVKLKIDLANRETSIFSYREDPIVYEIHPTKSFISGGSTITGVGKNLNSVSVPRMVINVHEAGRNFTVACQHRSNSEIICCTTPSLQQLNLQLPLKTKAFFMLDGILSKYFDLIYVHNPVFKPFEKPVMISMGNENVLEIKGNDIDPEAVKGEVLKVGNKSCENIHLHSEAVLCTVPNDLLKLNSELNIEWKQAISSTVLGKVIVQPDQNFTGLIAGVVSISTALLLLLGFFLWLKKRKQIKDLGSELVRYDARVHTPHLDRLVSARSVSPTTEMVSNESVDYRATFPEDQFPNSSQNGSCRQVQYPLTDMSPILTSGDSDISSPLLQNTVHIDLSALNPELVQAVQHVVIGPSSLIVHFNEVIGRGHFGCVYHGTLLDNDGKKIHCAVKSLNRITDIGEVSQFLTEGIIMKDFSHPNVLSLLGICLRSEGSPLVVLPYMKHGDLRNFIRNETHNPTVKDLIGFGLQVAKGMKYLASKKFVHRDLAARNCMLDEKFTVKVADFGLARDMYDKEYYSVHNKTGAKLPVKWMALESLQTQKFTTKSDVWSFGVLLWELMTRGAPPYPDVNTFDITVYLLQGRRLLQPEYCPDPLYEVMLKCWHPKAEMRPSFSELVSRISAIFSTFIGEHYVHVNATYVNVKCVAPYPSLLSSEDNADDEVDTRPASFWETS
# Summary of the method: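 IC50 values derive from a 4-parameter logistic fit of phospho-Met (panTyr) sandwich ELISA signals in PC-3 lysates, scaled between DMSO and reference-inhibitor wells. Cells, starved 3 h in serum-free medium, had 1 h compound exposure (8 doses, 0.3% DMSO) before 10 min stimulation with 100 ng/mL HGF.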
# Sequence of Human MET (residues 956-1390) (P08581 956-1390): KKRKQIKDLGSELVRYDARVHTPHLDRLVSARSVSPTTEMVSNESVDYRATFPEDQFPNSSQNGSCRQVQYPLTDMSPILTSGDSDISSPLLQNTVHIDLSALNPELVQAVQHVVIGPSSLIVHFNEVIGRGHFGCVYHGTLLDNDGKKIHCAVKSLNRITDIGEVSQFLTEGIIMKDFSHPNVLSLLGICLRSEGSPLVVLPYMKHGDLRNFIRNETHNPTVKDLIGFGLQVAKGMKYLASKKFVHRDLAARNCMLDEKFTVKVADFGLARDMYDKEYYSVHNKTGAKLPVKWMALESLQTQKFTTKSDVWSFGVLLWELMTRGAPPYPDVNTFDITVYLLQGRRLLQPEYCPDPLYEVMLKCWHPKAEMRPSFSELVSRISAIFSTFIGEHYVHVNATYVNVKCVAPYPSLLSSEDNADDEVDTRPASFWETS
IC50 [1] [nM],IC50 [2] [nM],IC50 [3] [nM],IC50 [4] [nM],Structure (SMILES)
< 100,> 300,< 100,< 100,"COc1cc2nccc(Oc3ccc(NC(=O)c4cnc(C)c(-c5ccc(F)cc5C)c4O)cc3)c2nc1OC(C)C [Compound 414, 5-(4-fluoro-2-methylphenyl)-4-hydroxy-N-[4-[(7-methoxy-6-propan-2-yloxy-1,5-naphthyridin-4-yl)oxy]phenyl]-6-methylpyridine-3-carboxamide]"
< 100,100 to 300,< 100,< 100,"Cc1cc2nccc(Oc3ccc(NC(=O)c4cnc(C)c(-c5ccc(F)cc5)c4O)cc3F)c2nc1F [Compound 426, N-[3-fluoro-4-[(6-fluoro-7-methyl-1,5-naphthyridin-4-yl)oxy]phenyl]-5-(4-fluorophenyl)-4-hydroxy-6-methylpyridine-3-carboxamide]"
< 100,> 300,< 100,< 100,"COc1cc2nccc(Oc3ccc(NC(=O)c4cn(C5CC5)c(C)c(-c5ccc(F)cc5)c4=O)cc3F)c2nc1OC [Compound 433, 1-cyclopropyl-N-[4-[(6,7-dimethoxy-1,5-naphthyridin-4-yl)oxy]-3-fluorophenyl]-5-(4-fluorophenyl)-6-methyl-4-oxopyridine-3-carboxamide]"
< 100,< 100,< 100,< 100,"CNC(=O)c1cc2c(Oc3ccc(NC(=O)c4c5n(cc(-c6ccc(F)cc6)c4=O)CCC5)cc3F)ccnc2cc1OC [Compound 408, 4-[2-fluoro-4-[[6-(4-fluorophenyl)-7-oxo-2,3-dihydro-1H-indolizine-8-carbonyl]amino]phenoxy]-7-methoxy-N-methylquinoline-6-carboxamide]"
< 100,100 to 300,< 100,< 100,"CCc1cnc2c(Oc3ccc(NC(=O)c4cnc(C)c(-c5ccc(F)cc5)c4O)cc3F)ccnc2c1 [Compound 418, N-[4-[(7-ethyl-1,5-naphthyridin-4-yl)oxy]-3-fluorophenyl]-5-(4-fluorophenyl)-4-hydroxy-6-methylpyridine-3-carboxamide]"
< 100,< 100,< 100,< 100,"Cc1cc2nccc(Oc3ccc(NC(=O)c4cnc(C)c(-c5ccc(F)cc5)c4O)cc3F)c2nc1OCCCN1CCOCC1 [Compound 438, N-[3-fluoro-4-[[7-methyl-6-(3-morpholin-4-ylpropoxy)-1,5-naphthyridin-4-yl]oxy]phenyl]-5-(4-fluorophenyl)-4-hydroxy-6-methylpyridine-3-carboxamide]"
< 100,< 100,< 100,< 100,"COc1cc2nccc(Oc3ccc(NC(=O)c4cnc(C)c(-c5ccc(F)cc5C)c4O)cc3F)c2nc1OCCCN1CCOCC1 [Compound 425, N-[3-fluoro-4-[[7-methoxy-6-(3-morpholin-4-ylpropoxy)-1,5-naphthyridin-4-yl]oxy]phenyl]-5-(4-fluoro-2-methylphenyl)-4-hydroxy-6-methylpyridine-3-carboxamide]"
< 100,> 300,< 100,< 100,"COc1cc2nccc(Oc3ccc(NC(=O)c4cn(C5CC5)c(C)c(-c5ccc(F)cc5C)c4=O)cc3)c2nc1OC [Compound 440, 1-cyclopropyl-N-[4-[(6,7-dimethoxy-1,5-naphthyridin-4-yl)oxy]phenyl]-5-(4-fluoro-2-methylphenyl)-6-methyl-4-oxopyridine-3-carboxamide]"

# Second part, the molecule before the results:
Structure (SMILES),IC50 [1] [nM],IC50 [2] [nM],IC50 [3] [nM],IC50 [4] [nM]
"COc1cc2nccc(Oc3ccc(NC(=O)c4cnc(C)c(-c5ccc(F)cc5C)c4O)cc3F)c2nc1OC [Compound 69, N-[4-[(6,7-Dimethoxy-1,5-naphthyridin-4-yl)oxy]-3-fluorophenyl]-5-(4-fluoro-2-methylphenyl)-4-hydroxy-6-methylpyridine-3-carboxamide]",< 100,< 100,< 100,< 100
"COc1cnc2c(Oc3ccc(NC(=O)c4ncc(C)n(-c5ccc(F)cc5)c4=O)cc3F)ccnc2c1 [Compound 94, N-[3-Fluoro-4-[(7-methoxy-1,5-naphthyridin-4-yl)oxy]phenyl]-4-(4-fluorophenyl)-5-methyl-3-oxopyrazine-2-carboxamide]",< 100,> 300,< 100,< 100
"COc1cc2nccc(Oc3ccc(NC(=O)c4cn(-c5cc[nH]n5)cc(-c5ccc(F)cc5)c4=O)cc3F)c2nc1OC [Compound 61, N-[4-[(6,7-Dimethoxy-1,5-naphthyridin-4-yl)oxy]-3-fluorophenyl]-5-(4-fluorophenyl)-4-oxo-1-(1H-pyrazol-3-yl)pyridine-3-carboxamide]",< 100,> 300,< 100,< 100
"CNc1c(-c2ccc(F)cc2)c(=O)c(C(=O)Nc2ccc(Oc3ccnc4cc(OC)c(OC)nc34)c(F)c2)cn1C [Compound 76, N-[4-[(6,7-Dimethoxy-1,5-naphthyridin-4-yl)oxy]-3-fluorophenyl]-5-(4-fluorophenyl)-1-methyl-6-(methylamino)-4-oxopyridine-3-carboxamide]",< 100,< 100,< 100,< 100
"COc1cc2nccc(Oc3ccc(NC(=O)c4cc(C#N)c(C)n(-c5ccc(F)cc5)c4=O)cc3F)c2nc1OC [Compound 87, 5-Cyano-N-[4-[(6,7-dimethoxy-1,5-naphthyridin-4-yl)oxy]-3-fluorophenyl]-1-(4-fluorophenyl)-6-methyl-2-oxopyridine-3-carboxamide]",< 100,> 300,< 100,< 100
"COc1ccc2nccc(Oc3ccc(NC(=O)c4ccc(C)n(-c5ccc(F)cc5C)c4=O)cc3F)c2n1 [Compound 85, N-[3-Fluoro-4-[(6-methoxy-1,5-naphthyridin-4-yl)oxy]phenyl]-1-(4-fluoro-2-methylphenyl)-6-methyl-2-oxopyridine-3-carboxamide]",100 to 300,> 300,< 100,< 100
"COc1cc2nccc(Oc3ccc(NC(=O)c4n[nH]c(C)c(-c5ccc(F)cc5)c4=O)cc3F)c2nc1OC [Compound 88, N-[4-[(6,7-Dimethoxy-1,5-naphthyridin-4-yl)oxy]-3-fluorophenyl]-5-(4-fluorophenyl)-6-methyl-4-oxo-1H-pyridazine-3-carboxamide]",< 100,< 100,< 100,< 100
"COc1cc2nccc(Oc3ccc(NC(=O)c4cn(C)c(OC)c(-c5ccc(F)cc5)c4=O)cc3F)c2nc1OC [Compound 78, N-[4-[(6,7-Dimethoxy-1,5-naphthyridin-4-yl)oxy]-3-fluorophenyl]-5-(4-fluorophenyl)-6-methoxy-1-methyl-4-oxopyridine-3-carboxamide]",< 100,< 100,< 100,< 100
"COc1cnc2c(Oc3ccc(NC(=O)c4cnc(C)c(-c5ccc(F)cc5)c4O)cc3F)ccnc2c1 [Compound 64, N-[3-Fluoro-4-[(7-methoxy-1,5-naphthyridin-4-yl)oxy]phenyl]-5-(4-fluorophenyl)-4-hydroxy-6-methylpyridine-3-carboxamide]",< 100,< 100,< 100,< 100
"COc1cc2nccc(Oc3ccc(NC(=O)c4nn(C)c(C)c(-c5ccc(F)cc5)c4=O)cc3F)c2nc1OC [Compound 92, N-[4-[(6,7-Dimethoxy-1,5-naphthyridin-4-yl)oxy]-3-fluorophenyl]-5-(4-fluorophenyl)-1,6-dimethyl-4-oxopyridazine-3-carboxamide]",< 100,100 to 300,< 100,< 100
"COc1cc2nccc(Oc3ccc(NC(=O)c4cc(C(C)=O)c(C)n(-c5ccc(F)cc5)c4=O)cc3F)c2nc1OC [Compound 86, 5-Acetyl-N-[4-[(6,7-dimethoxy-1,5-naphthyridin-4-yl)oxy]-3-fluorophenyl]-1-(4-fluorophenyl)-6-methyl-2-oxopyridine-3-carboxamide]",< 100,> 300,< 100,< 100
"COc1cc2nccc(Oc3ccc(NC(=O)c4ncc(C)n(-c5ccc(F)cc5)c4=O)cc3F)c2nc1OC [Compound 93, N-[4-[(6,7-Dimethoxy-1,5-naphthyridin-4-yl)oxy]-3-fluorophenyl]-4-(4-fluorophenyl)-5-methyl-3-oxopyrazine-2-carboxamide]",< 100,< 100,< 100,< 100
